Measured values from paper PMC12498388, “Niraparib Demonstrates Therapeutic Potential in Multiple Sclerosis through Inhibition of IL-17A Receptor Interaction and Promotion of Remyelination” (ACS Chemical Neuroscience, 2025).

Columns and labels:
[1] = biological target: T1, IL-17A with IL-17RA/IL-17RC receptor (HEK-Blue IL-17 reporter cells) (Homo sapiens, UniProt Q16552); assay: SEAP reporter assay in HEK-Blue IL-17 cells, QUANTI-Blue […] nm; type: cell-based; conditions: IL-17A-stimulated cells, 37 °C overnight, 1 nM to 100 μM, four-parameter fit; indirect downstream reporter read-out (NF-kB/AP-1), binding site not shown experimentally
T1 construct: gene IL17A; IL-17A ligand supplied by the manufacturer, added to HEK 293 cells stably transfected with IL-17RA/IL-17RC heterodimeric receptor and Act1 adaptor; SEAP reporter (NF-kB/AP-1); with Interleukin-17 receptor A; Interleukin-17 receptor C

[2] = biological target: IL-17RA/IL-17RC heterodimeric receptor (UniProt Q96F46)

Sequence of IL-17A (Q16552 24-155): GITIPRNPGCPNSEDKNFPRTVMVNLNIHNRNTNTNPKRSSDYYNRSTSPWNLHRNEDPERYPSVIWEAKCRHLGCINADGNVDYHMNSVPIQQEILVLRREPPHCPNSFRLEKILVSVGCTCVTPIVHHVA

Row | IC50 [1] | SEAP release of HEK-Blue IL-17 reporter cells (QUANTI-Blue, 630 nm) with IL-17A; percent inhibition by the small molecule Niraparib, 1 nM to 100 uM (22% at 1 uM, 51% at 10 uM, 99.3% at 100 uM) [2] | Compound
1 | 70 µM |  | NC(=O)c1cccc2cn(-c3ccc([C@@H]4CCCNC4)cc3)nc12 [Niraparib]
2 |  | 99.3% | IL-17A (from UniProt Q16552 24-155) (ligand)
